The record followed here is US10544147B2, “Purine inhibitors of human phosphatidylinositol 3-kinase delta” (MERCK SHARP & DOHME CORP., priority 2016, dated 2020).

A value given as a limit tells only on which side of the number the result lay.

Assay [1] addresses PI3Kdelta (Homo sapiens (Human), UniProt O00329). The assay can be described thus: HTRF PI3K biochemical assay, delta isoform. To be noted: 0.3 nM enzyme, 100 uM ATP, 50 uM PIP2; form screened (neutral or TFA salt).
Assay [2] deals with PI3Kalpha (Homo sapiens (Human), UniProt P42336). As to the kind of experiment: HTRF PI3K biochemical assay, alpha isoform (selectivity versus delta). To be noted: ratio PI3K-alpha IC50 value/PI3K-delta IC50 value. Background: TR-FRET usually uses a lanthanide donor and a delayed reading to cut background.
PI3Kalpha, sequence (P42336 whole entry, canonical isoform): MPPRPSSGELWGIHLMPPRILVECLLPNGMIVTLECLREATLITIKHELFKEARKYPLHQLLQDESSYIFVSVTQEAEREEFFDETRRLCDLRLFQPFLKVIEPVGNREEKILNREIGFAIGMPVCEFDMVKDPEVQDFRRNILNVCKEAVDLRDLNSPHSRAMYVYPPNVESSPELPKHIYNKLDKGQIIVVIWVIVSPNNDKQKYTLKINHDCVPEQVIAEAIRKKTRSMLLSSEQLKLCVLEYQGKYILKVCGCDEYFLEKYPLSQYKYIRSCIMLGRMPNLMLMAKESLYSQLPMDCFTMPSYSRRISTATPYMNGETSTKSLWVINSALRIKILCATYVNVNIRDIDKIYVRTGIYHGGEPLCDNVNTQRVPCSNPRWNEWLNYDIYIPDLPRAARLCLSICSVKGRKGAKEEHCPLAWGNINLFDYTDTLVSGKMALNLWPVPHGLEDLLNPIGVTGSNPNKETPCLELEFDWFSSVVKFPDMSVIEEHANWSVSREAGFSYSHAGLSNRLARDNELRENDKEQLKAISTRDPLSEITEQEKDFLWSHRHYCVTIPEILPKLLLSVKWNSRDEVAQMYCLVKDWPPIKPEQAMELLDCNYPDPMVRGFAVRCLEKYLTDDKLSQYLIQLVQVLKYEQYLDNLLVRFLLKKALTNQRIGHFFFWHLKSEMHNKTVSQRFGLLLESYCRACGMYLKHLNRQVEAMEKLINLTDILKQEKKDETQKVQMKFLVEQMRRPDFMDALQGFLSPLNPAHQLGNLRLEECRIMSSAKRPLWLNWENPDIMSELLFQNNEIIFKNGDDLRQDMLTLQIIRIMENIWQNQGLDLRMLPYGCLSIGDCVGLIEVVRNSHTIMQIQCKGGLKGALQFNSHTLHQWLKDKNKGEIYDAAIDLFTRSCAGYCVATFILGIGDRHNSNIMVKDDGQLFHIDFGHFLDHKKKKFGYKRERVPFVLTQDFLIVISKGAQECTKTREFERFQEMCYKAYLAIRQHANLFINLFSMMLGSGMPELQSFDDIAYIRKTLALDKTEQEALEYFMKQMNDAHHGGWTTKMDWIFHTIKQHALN
PI3Kalpha, sequence (P27986 whole entry partner, canonical isoform): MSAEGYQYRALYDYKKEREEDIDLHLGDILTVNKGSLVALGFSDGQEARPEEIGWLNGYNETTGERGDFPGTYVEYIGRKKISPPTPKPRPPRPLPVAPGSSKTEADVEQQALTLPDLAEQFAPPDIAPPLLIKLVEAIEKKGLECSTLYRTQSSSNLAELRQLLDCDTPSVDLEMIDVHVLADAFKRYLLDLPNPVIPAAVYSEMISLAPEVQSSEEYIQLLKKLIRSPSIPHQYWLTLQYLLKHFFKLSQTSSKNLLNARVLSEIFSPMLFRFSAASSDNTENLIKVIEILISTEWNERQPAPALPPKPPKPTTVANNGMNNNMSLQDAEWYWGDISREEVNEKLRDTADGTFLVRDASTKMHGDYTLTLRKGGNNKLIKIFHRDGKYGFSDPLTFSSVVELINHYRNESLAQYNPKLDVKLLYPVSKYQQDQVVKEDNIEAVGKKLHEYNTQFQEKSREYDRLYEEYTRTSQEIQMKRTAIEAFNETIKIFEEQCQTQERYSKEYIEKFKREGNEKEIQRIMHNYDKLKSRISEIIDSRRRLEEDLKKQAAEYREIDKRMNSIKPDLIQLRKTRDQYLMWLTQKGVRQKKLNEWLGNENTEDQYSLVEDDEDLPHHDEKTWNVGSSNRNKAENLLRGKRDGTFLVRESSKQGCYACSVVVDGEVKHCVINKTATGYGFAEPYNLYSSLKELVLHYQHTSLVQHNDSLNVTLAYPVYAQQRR

PI3Kdelta, sequence (O00329 whole entry, canonical isoform): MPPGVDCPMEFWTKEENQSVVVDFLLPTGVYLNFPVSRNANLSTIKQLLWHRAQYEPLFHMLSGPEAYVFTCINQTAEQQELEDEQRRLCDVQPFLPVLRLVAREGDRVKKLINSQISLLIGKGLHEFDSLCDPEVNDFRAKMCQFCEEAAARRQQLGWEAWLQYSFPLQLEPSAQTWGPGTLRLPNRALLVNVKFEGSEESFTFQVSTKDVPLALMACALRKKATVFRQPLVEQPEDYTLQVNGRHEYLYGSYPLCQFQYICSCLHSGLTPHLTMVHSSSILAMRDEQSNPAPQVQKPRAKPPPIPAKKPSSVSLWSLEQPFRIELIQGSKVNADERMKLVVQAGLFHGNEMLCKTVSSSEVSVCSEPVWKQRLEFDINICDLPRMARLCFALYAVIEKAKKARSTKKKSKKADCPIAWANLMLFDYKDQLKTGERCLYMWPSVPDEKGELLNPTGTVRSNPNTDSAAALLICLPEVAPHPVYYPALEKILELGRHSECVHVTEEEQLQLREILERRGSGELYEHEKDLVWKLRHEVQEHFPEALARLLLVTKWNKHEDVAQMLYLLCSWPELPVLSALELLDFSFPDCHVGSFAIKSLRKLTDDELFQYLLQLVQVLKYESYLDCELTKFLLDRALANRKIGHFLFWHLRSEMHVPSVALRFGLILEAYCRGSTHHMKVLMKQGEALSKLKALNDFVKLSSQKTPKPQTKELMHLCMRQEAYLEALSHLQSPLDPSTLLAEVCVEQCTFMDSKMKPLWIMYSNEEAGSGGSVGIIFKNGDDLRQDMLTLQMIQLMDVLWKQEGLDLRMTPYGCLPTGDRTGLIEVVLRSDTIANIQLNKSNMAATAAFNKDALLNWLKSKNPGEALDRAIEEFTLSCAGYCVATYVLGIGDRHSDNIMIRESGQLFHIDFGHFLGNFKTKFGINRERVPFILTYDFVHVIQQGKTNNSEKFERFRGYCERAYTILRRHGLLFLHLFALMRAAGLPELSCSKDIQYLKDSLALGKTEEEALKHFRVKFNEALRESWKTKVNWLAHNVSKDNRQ
PI3Kdelta, sequence (P27986 whole entry partner, canonical isoform): as the sequence (P27986 whole entry partner, canonical isoform) above

As to `CCn1c(-c2cnc(C)nc2)nc2c(-c3cnc4c(c3)C(C)(CC(C)C)C(=O)N4)ncnc21` (single isomer, unassigned) [Compound 1-13, 5-(9-ethyl-8-(2-methylpyrimidin-5-yl)-9H-purin-6-yl)-3-isobutyl-3-methyl-1,3-dihydro-2H-pyrrolo[2,3-b]pyridin-2-one], the IC50 in assay [1] worked out at 370 nM. Also, in assay [2], the “Relative Selectivity versus PI3Kalpha” value is over 10.

For `CCn1c(-c2cnc(C)nc2)nc2c(-c3ccc4c(c3)C(C)(CC(C)C)C(=O)N4)ncnc21` (single isomer, unassigned) [Compound 1-1, 5-(9-Ethyl-8-(2-methylpyrimidin-5-yl)-9H-purin-6-yl)-3-isobutyl-3-methylindolin-2-one], the concentration for half-maximal inhibition (IC50) in assay [1] came out at 4 nM. For the same molecule, the “Relative Selectivity versus PI3Kalpha” value in assay [2] was over 10.

Turning to `CCn1c(-c2cnc(C)nc2)nc2c(-c3ccc4c(c3)C(C)(NCC(C)C)C(=O)N4)ncnc21` (single isomer, unassigned) [Compound 2-66, (R or S)-5-(9-ethyl-8-(2-methylpyrimidin-5-yl)-9H-purin-6-yl)-3-(isobutylamino)-3-methylindolin-2-one], the half-maximal inhibitory concentration (IC50) in assay [1] was 1 nM. Further, the “Relative Selectivity versus PI3Kalpha” value in assay [2] is over 10.

Regarding `CCn1c(-c2cnc(C)nc2)nc2c(-c3ccc4c(c3)C3(CCCN3)C(=O)N4)ncnc21` (single isomer, unassigned) [Compound 3-32, (R or S)-5-(9-ethyl-8-(2-methylpyrimidin-5-yl)-9H-purin-6-yl)spiro[indoline-3,2′-pyrrolidin]-2-one], the IC50 in assay [1] is 169 nM. The “Relative Selectivity versus PI3Kalpha” value in assay [2] is reported as over 10.

`CCn1c(-c2cnc(C)nc2)nc2c(-c3ccc4c(c3)C3(CCN(C(=O)C5CC5)C3)C(=O)N4)ncnc21` (single isomer, unassigned) [Compound 3-5, (R or S)-1′-(cyclopropanecarbonyl)-5-(9-ethyl-8-(2-methylpyrimidin-5-yl)-9H-purin-6-yl)spiro[indoline-3,3′-pyrrolidin]-2-one]: in assay [1], the IC50 amounted to 63 nM. For the same molecule, in assay [2], the “Relative Selectivity versus PI3Kalpha” value is listed as over 10.

Consider `CCn1c(-c2cnc(C)nc2)nc2c(-c3ccc4c(c3)C(C)(OCC(C)(C)F)C(=O)N4)ncnc21` (single isomer, unassigned) [Compound 2-56, (R or S)-5-(9-ethyl-8-(2-methylpyrimidin-5-yl)-9H-purin-6-yl)-3-(2-fluoro-2-methylpropoxy)-3-methylindolin-2-one], for which the IC50 in assay [1] turned out to be 3 nM. Further, the “Relative Selectivity versus PI3Kalpha” value in assay [2] was over 10.

Take `CCn1c(-c2cnc(C)nc2)nc2c(-c3ccc4c(c3)C(C)(CC(C)(C)O)C(=O)N4)ncnc21` (single isomer, unassigned) [Compound 1-40, 5-(9-Ethyl-8-(2-methylpyrimidin-5-yl)-9H-purin-6-yl)-3-(2-hydroxy-2-methylpropyl)-3-methylindolin-2-one]: the IC50 in assay [1] was found to be 142 nM. Further, in assay [2], the “Relative Selectivity versus PI3Kalpha” value is on record as over 10.

As to `CCn1c(-c2cnc(C)nc2)nc2c(-c3ccc4c(c3)C(C)(CC)C(=O)N4)ncnc21` (single isomer, unassigned) [Compound 1-38, (R or S)-3-ethyl-5-(9-ethyl-8-(2-methylpyrimidin-5-yl)-9H-purin-6-yl)-3-methylindolin-2-one], the 50% inhibitory concentration (IC50) in assay [1] was 80 nM. In assay [2], the “Relative Selectivity versus PI3Kalpha” value is reported as over 10.

Turning to `CCn1c(-c2cnc(C)nc2)nc2c(-c3ccc4c(c3)C(C)(C3CCOCC3)C(=O)N4)ncnc21` (single isomer, unassigned) [Compound 1-34, 5-(9-Ethyl-8-(2-methylpyrimidin-5-yl)-9H-purin-6-yl)-3-methyl-3-(tetrahydro-2H-pyran-4-yl)indolin-2-one], the 50% inhibitory concentration (IC50) in assay [1] was 48 nM. In addition, the “Relative Selectivity versus PI3Kalpha” value in assay [2] is 8.

As for `CCn1c(C(F)F)nc2c(-c3ccc4c(c3)C(C)(Cc3ccccc3)C(=O)N4)ncnc21` (single isomer, unassigned) [Compound 1-23, (R or S)-benzyl-5-(8-(difluoromethyl)-9-ethyl-9H-purin-6-yl)-3-methylindolin-2-one], in assay [1], the IC50 was 27 nM. Further, the “Relative Selectivity versus PI3Kalpha” value in assay [2] is listed as over 10.

Consider `CCn1c(-c2cnc(C)nc2)nc2c(-c3ccc4c(c3)C(C)(N3CC5(CCO5)C3)C(=O)N4)ncnc21` (single isomer, unassigned) [Compound 2-8, (R or S)-5-[9-ethyl-8-(2-methylpyrimidin-5-yl)-9H-purin-6-yl]-3-methyl-3-(1-oxa-6-azaspiro[3.3]hept-6-yl)-1,3-dihydro-2H-indol-2-one], for which, in assay [1], the IC50 is 129 nM. Moreover, in assay [2], the “Relative Selectivity versus PI3Kalpha” value is over 10.

In the case of `CCN1CCCC12C(=O)Nc1ccc(-c3ncnc4c3nc(-c3cnc(C)nc3)n4CC)cc12` (single isomer, unassigned) [Compound 3-26, (R or S)-1′-ethyl-5-(9-ethyl-8-(2-methylpyrimidin-5-yl)-9H-purin-6-yl)spiro[indoline-3,2′-pyrrolidin]-2-one], the half-inhibitory concentration (IC50) in assay [1] stood at 29 nM. In addition, the “Relative Selectivity versus PI3Kalpha” value in assay [2] is over 10.

`CCn1c(-c2cnc(C)nc2)nc2c(-c3ccc4c(c3)C(C)(OCC3CC3)C(=O)N4)ncnc21` (single isomer, unassigned) [Compound 2-57, (R or S)-3-(cyclopropylmethoxy)-5-(9-ethyl-8-(2-methylpyrimidin-5-yl)-9H-purin-6-yl)-3-methylindolin-2-one]: the IC50 in assay [1] was determined as 264 nM. Moreover, the “Relative Selectivity versus PI3Kalpha” value in assay [2] is given as over 10.

As for `CCn1c(-c2cnc(C)nc2)nc2c(-c3ccc4c(c3)C(C)(CC3(C)COC3)C(=O)N4)ncnc21` (single isomer, unassigned) [Compound 1-5, (R or S)-5-[9-ethyl-8-(2-methylpyrimidin-5-yl)-9H-purin-6-yl]-3-methyl-3-[(3-methyloxetan-3-yl)methyl]-1,3-dihydro-2H-indol-2-one], the 50% inhibitory concentration (IC50) in assay [1] stood at 177 nM. The “Relative Selectivity versus PI3Kalpha” value in assay [2] is on record as 3.

Turning to `Cc1ncc(-c2nc3c(-c4cnc5c(c4)C(C)(CC(C)C)C(=O)N5)ncnc3n2C)cn1` (single isomer, unassigned) [Compound 1-27, (R or S)-3-isobutyl-3-methyl-5-(9-methyl-8-(2-methylpyrimidin-5-yl)-9H-purin-6-yl)-1,3-dihydro-2H-pyrrolo[2,3-b]pyridin-2-one], the concentration for half-maximal inhibition (IC50) in assay [1] turned out to be 5 nM. The “Relative Selectivity versus PI3Kalpha” value in assay [2] is over 10.

Turning to `Cc1ncc(-c2nc3c(-c4ccc5c(c4)C4(CCCN4C(=O)C4CC4)C(=O)N5CCO)ncnc3n2C)cn1` (single isomer, unassigned) [Compound 3-18, (R or S)-1′-(cyclopropanecarbonyl)-1-(2-hydroxyethyl)-5-(9-methyl-8-(2-methylpyrimidin-5-yl)-9H-purin-6-yl)spiro[indoline-3,2′-pyrrolidin]-2-one], the IC50 in assay [1] stood at 1.9 nM. In addition, the “Relative Selectivity versus PI3Kalpha” value in assay [2] is reported as over 10.

As to `CCn1c(-c2cnc(C)nc2)nc2c(-c3ccc4c(c3)C(C)(CC3CC3)C(=O)N4C)ncnc21` (single isomer, unassigned) [Compound 1-10, 3-(Cyclopropylmethyl)-5-(9-ethyl-8-(2-methylpyrimidin-5-yl)-9H-purin-6-yl)-1,3-dimethylindolin-2-one], the IC50 in assay [1] stood at 194 nM. The “Relative Selectivity versus PI3Kalpha” value in assay [2] was over 10.

For `CCn1c(-c2cnc(C)nc2)nc2c(-c3ccc4c(c3)C3(CCCN3S(=O)(=O)C(F)(F)F)C(=O)N4)ncnc21` (single isomer, unassigned) [Compound 3-22, (R or S)-5-(9-ethyl-8-(2-methylpyrimidin-5-yl)-9H-purin-6-yl)-1′-((trifluoromethyl)sulfonyl)spiro[indoline-3,2′-pyrrolidine]-2-one], the IC50 in assay [1] was 4 nM. Moreover, the “Relative Selectivity versus PI3Kalpha” value in assay [2] is listed as over 10.

As to `CCn1c(C(F)F)nc2c(-c3ccc4c(c3)C3(CCCN3C(=O)C3CC3)C(=O)N4)ncnc21` (single isomer, unassigned) [Compound 3-15, (R or S)-1′-(cyclopropanecarbonyl)-5-(8-(difluoromethyl)-9-ethyl-9H-purin-6-yl)spiro[indoline-3,2′-pyrrolidin]-2-one], the half-maximal inhibitory concentration (IC50) in assay [1] was found to be 5 nM. The “Relative Selectivity versus PI3Kalpha” value in assay [2] was over 10.

On to `CCn1c(-c2cnc(C)nc2)nc2c(-c3ccc4c(c3)C(C)(Cc3ccccc3)N(C)C4=O)ncnc21` (single isomer, unassigned) [Compound 4-12, (R or S)-3-benzyl-5-[9-ethyl-8-(2-methylpyrimidin-5-yl)-9H-purin-6-yl]-2,3-dimethyl-2,3-dihydro-1H-isoindol-1-one], for which the IC50 in assay [1] worked out at 14 nM. Besides, in assay [2], the “Relative Selectivity versus PI3Kalpha” value is over 10.

With `CCn1c(-c2cnc(C)nc2)nc2c(-c3ccc4c(c3)C(C)(N3CC(C)(F)C3)C(=O)N4)ncnc21` (single isomer, unassigned) [Compound 2-63, (R or S)-5-(9-ethyl-8-(2-methylpyrimidin-5-yl)-9H-purin-6-yl)-3-(3-fluoro-3-methylazetidin-1-yl)-3-methylindolin-2-one], the IC50 in assay [1] amounted to 87 nM. Besides, the “Relative Selectivity versus PI3Kalpha” value in assay [2] was over 10.

On to `CCN1CCCC12C(=O)Nc1ccc(-c3ncnc4c3nc(-c3cnc(C)nc3)n4C)cc12` (single isomer, unassigned) [Compound 3-28, (R or S)-1′-ethyl-5-(9-methyl-8-(2-methylpyrimidin-5-yl)-9H-purin-6-yl)spiro[indoline-3,2′-pyrrolidin]-2-one], for which, in assay [1], the IC50 came to 99 nM. Moreover, the “Relative Selectivity versus PI3Kalpha” value in assay [2] is given as over 10.

Regarding `CCn1c(-c2cnc(C)nc2)nc2c(-c3ccc4c(c3)C(C)(N[C@@H](C)C3CCC3)C(=O)N4)ncnc21` (mixture of isomers) [Compound 2-27, 3-{[(1S)-1-cyclobutylethyl]amino}-5-[9-ethyl-8-(2-methylpyrimidin-5-yl)-9H-purin-6-yl]-3(R and S)-methyl-1,3-dihydro-2H-indol-2-one], the IC50 in assay [1] was 13 nM. In assay [2], the “Relative Selectivity versus PI3Kalpha” value is listed as over 10.

What is called IC50 is the midpoint of a concentration-inhibition curve.
